{
  "source": "patent US20080269326A1",
  "about": "“Use of 1-Phenyl-3-Dimethylamino-propane Compounds for Treating Neuropathic Pain” (GRUENENTHAL GmbH, priority 2007, published 2008)",
  "key": {"[1]": {"system": "cold allodynia in morphine-tolerant Bennett animals", "test": "Bennett model cold allodynia in morphine-tolerant animals", "type": "in vivo, rat", "protocol": "Sprague-Dawley rats weighing 140-160 g are provided with four loose ligatures of the right sciatic nerve under nembutal narcosis. The animals develop a hypersensitivity in the paw innervated by the damaged nerve, which after a healing phase of one week is quantified over about four weeks by means of a 4° C. cold metal plate (cold allodynia). The animals are observed for two minutes on this plate and the number of retractive movements of the damaged paw are measured. The effect of the substance is determined with reference to the base value before application of the substance, at four different times over a period of one hour(15, 30, 45 and 60 minutes after application) and the resultant area under the curve (AUD) as well as the inhibition of cold allodynia at the individual measurement points is expressed in percent effect with reference to the vehicle control (AUD) and to the initial value (individual measurement points). The cohort size is n=10.\nThe underlying question is the action of a test substance having a presumably opioid action mechanism in patients who are tolerant or treatment-resistant to morphine. […] The action of test substances in naive (non-morphine-tolerant) animals and morphine-tolerant animals is compared in Table 4. […] Morphine [10 mg/kg i.p.], Compound 9 [10 and 21.5 mg/kg i.p.], Compound 10 [0.46 and 1 mg/kg i.p.], Compound 4 [21.5 mg/kg i.p.] and Compound 11 [21.5 mg/kg i.p.] were tested analogously to Example 1."}, "[2]": {"system": "tactile allodynia in Chung animals", "test": "Chung model (spinal nerve ligature), tactile allodynia, electronic von Frey", "type": "in vivo", "settings": "Rattus norvegicus, ip, 0.5 h; rats, i.p., 30 minutes after administration", "protocol": "Spinal nerve ligatures according to Kim & Chung (1992 Pain 50, 355-363) were applied to the left L5/L6 spinal nerves of male Spraque-Dawley rats. Four to six days after the operation the tactile threshold baseline (withdrawal threshold) was measured on the ipsilateral and contralateral rear paw by an electronic von Frey anaesthesiometer (IITC Life Science, USA). After the test and measurement of the baseline, morphine, gabapentin and some of the aforementioned compounds used according to the invention were administered. The tactile withdrawal thresholds were measured 30 minutes after the administration. The results are expressed as ED50 and % maximal possible effect (% MPE) on the ipsilateral side, in which the baseline is taken as 0% and the withdrawal threshold of a control group is taken as 100% MPE."}, "[3]": {"system": "polyneuropathic pain, withdrawal threshold of rear paw", "test": "Polyneuropathy (streptozotocin-induced diabetic neuropathy, STZ), withdrawal threshold by Randall and Selitto", "type": "in vivo, rat", "protocol": "Male Sprague Dawley rats (140-180g, Janvier, France) are kept under standard conditions (06.00-18.00 hours light, 18.00-06.00 hours darkness; 20°-24° C. room temperature; 35-70% relative atmospheric humidity, tap water and standard feed as desired) in groups of five animals in Macrolon type 4 cages.\nRats receive a single i.p. dose of Streptozotocin (STZ, Sigma Aldrich Chemie, Germany) or vehicle (0.1 mM citrate buffer, pH 4.6). After one week the blood sugar values are determined and animals treated with STZ that have a blood sugar value of ≧17 mM are classed as diabetic in the experiment. Diabetic animals develop a hypersensitivity in the rear paws. The hypersensitivity to a pressure stimulus can be measured using a pressure pain instrument (algesiometer; Ugo Basile, Italy) according to the method of Randall and Selitto (Arch. Int. Pharmcodyn. 1957; 111: 409-19) in diabetic animals compared to healthy control animals of the same weight, in the third week after STZ treatment. After the animals had become accustomed to the surroundings, the rear right paw of damaged (diabetic) and undamaged (healthy) animals was subjected to increasing pressure on the upper side of the paw until the corresponding paw is withdrawn or the animal gives a vocal response. This value defines the withdrawal threshold of a test time point. Diabetic and healthy animals are tested before and at various times after administration of the substance or vehicle. For each animal the difference between the test value and pre-test is determined, and for the groups, each consisting of ten animals, the result is expressed as the mean value (MW) and standard error of the mean (SEM). The difference between the mean difference values of the diabetic and healthy animals defines the polyneuropathy-induced hypersensitivity. The statistical significance of the effect of a substance is determined on the basis of the difference values with respect to the vehicle group for diabetic and healthy animals by means of bifactorial variance analysis and post hoc analysis according to Bonferroni."}},
  "note": "Values joined by “and” are separate entries in the source; they are usually repeats but may differ in a detail not shown here. Equal entries are not always repeated.",
  "data": [
    {"compound": "CC[C@@H](c1cccc(O)c1)[C@@H](C)CN(C)C", "note": "[Compound 9, (1R,2R)-3-(3-dimethylamino-1-ethyl-2-methylpropyl)-phenol]", "values": [
      {"measurement": "Cold allodynia (% AUD) Morphine-tolerant animals", "setting": "[1]; 10 mg/kg i.p.", "result": 37.3, "unit": "% AUD"},
      {"measurement": "Cold allodynia (% AUD) Morphine-tolerant animals", "setting": "[1]; 21.5 mg/kg i.p.", "result": 36.7, "unit": "% AUD"},
      {"measurement": "ED50", "setting": "[2]", "result": 8.15, "unit": "mg/kg"},
      {"measurement": "withdrawal threshold, test value - pre-test value (MW)", "setting": "[3]; 0.1 mg/kg i.v., Diabetes, 15 min", "result": 1.0, "unit": "g"},
      {"measurement": "withdrawal threshold, test value - pre-test value (MW)", "setting": "[3]; 0.1 mg/kg i.v., Diabetes, 30 min", "result": -2.0, "unit": "g"},
      {"measurement": "withdrawal threshold, test value - pre-test value (MW)", "setting": "[3]; 0.1 mg/kg i.v., Diabetes, 45 min", "result": 6.0, "unit": "g"},
      {"measurement": "withdrawal threshold, test value - pre-test value (MW)", "setting": "[3]; 0.1 mg/kg i.v., Diabetes, 60 min", "result": -2.0, "unit": "g"},
      {"measurement": "withdrawal threshold, test value - pre-test value (MW)", "setting": "[3]; 0.1 mg/kg i.v., Naive, 15 min", "result": 4.0, "unit": "g"},
      {"measurement": "withdrawal threshold, test value - pre-test value (MW)", "setting": "[3]; 0.1 mg/kg i.v., Naive, 30 min", "result": -12.0, "unit": "g"},
      {"measurement": "withdrawal threshold, test value - pre-test value (MW)", "setting": "[3]; 0.1 mg/kg i.v., Naive, 45 min", "result": -2.0, "unit": "g"},
      {"measurement": "withdrawal threshold, test value - pre-test value (MW)", "setting": "[3]; 0.1 mg/kg i.v., Naive, 60 min", "result": -5.0, "unit": "g"},
      {"measurement": "withdrawal threshold, test value - pre-test value (MW)", "setting": "[3]; 0.316 mg/kg i.v., Diabetes, 15 min", "result": 35.0, "unit": "g"},
      {"measurement": "withdrawal threshold, test value - pre-test value (MW)", "setting": "[3]; 0.316 mg/kg i.v., Diabetes, 30 min", "result": 30.0, "unit": "g"},
      {"measurement": "withdrawal threshold, test value - pre-test value (MW)", "setting": "[3]; 0.316 mg/kg i.v., Diabetes, 45 min", "result": 24.0, "unit": "g"},
      {"measurement": "withdrawal threshold, test value - pre-test value (MW)", "setting": "[3]; 0.316 mg/kg i.v., Diabetes, 60 min", "result": 16.0, "unit": "g"},
      {"measurement": "withdrawal threshold, test value - pre-test value (MW)", "setting": "[3]; 0.316 mg/kg i.v., Naive, 15 min", "result": 17.0, "unit": "g"},
      {"measurement": "withdrawal threshold, test value - pre-test value (MW)", "setting": "[3]; 0.316 mg/kg i.v., Naive, 30 min", "result": -5.0, "unit": "g"},
      {"measurement": "withdrawal threshold, test value - pre-test value (MW)", "setting": "[3]; 0.316 mg/kg i.v., Naive, 45 min", "result": -5.0, "unit": "g"},
      {"measurement": "withdrawal threshold, test value - pre-test value (MW)", "setting": "[3]; 0.316 mg/kg i.v., Naive, 60 min", "result": 2.0, "unit": "g"},
      {"measurement": "withdrawal threshold, test value - pre-test value (MW)", "setting": "[3]; 1 mg/kg i.v., Diabetes, 45 min", "result": 34.0, "unit": "g"},
      {"measurement": "withdrawal threshold, test value - pre-test value (MW)", "setting": "[3]; 1 mg/kg i.v., Diabetes, 60 min", "result": 27.0, "unit": "g"},
      {"measurement": "withdrawal threshold, test value - pre-test value (MW)", "setting": "[3]; 1 mg/kg i.v., Naive, 15 min", "result": 42.0, "unit": "g"},
      {"measurement": "withdrawal threshold, test value - pre-test value (MW)", "setting": "[3]; 1 mg/kg i.v., Naive, 30 min", "result": 28.0, "unit": "g"},
      {"measurement": "withdrawal threshold, test value - pre-test value (MW)", "setting": "[3]; 1 mg/kg i.v., Naive, 45 min", "result": -2.0, "unit": "g"},
      {"measurement": "withdrawal threshold, test value - pre-test value (MW)", "setting": "[3]; 1 mg/kg i.v., Naive, 60 min", "result": 7.0, "unit": "g"},
      {"measurement": "inhibition of the polyneuropathically-induced withdrawal threshold reduction", "setting": "[3]; 1 mg/kg i.v., after 15 minutes and 30 minutes, diabetic animals", "result": "complete inhibition"},
      {"measurement": "statistically significant minimal effective dose", "setting": "[3]; i.v., healthy control animals", "result": 1, "unit": "mg/kg"},
      {"measurement": "dosage at which complete inhibition is reached", "setting": "[3]; i.v., polyneuropathic pain model", "result": 1, "unit": "mg/kg"},
      {"measurement": "statistically significant minimal effective dose", "setting": "[3]; i.v., rear paw of diabetic rats", "result": "0.316 mg/kg and 0.3 mg/kg"}
    ]}
  ]
}
